According to PMC3724450 (Nature communications, 2013):

Test system: HCC4017
Assay: Cell viability assay, patient matched pair
Conditions: patient matched cancer vs normal lines

With COC(=O)CNC(=O)C(=O)OC [D1070, dimethyloxalylglycine] the “selectivity for cancer vs. normal patient matched cells” value was “only five-fold selectivity for cancer”.
